pIC50: −log10 of the molar value. Counter-ions that a name gives are not always drawn.
The compounds below were run against muscarinic receptors (3H-OXO-M), cerebral cortex (assay: Radio ligand binding: displacement of the muscarinic agonist 3H-Oxotremorine-M (3H-OXO-M) from rat cerebral cortex membranes). Details: displacement of 2 nM 3H-OXO-M (muscarinic agonist), 2 mM magnesium chloride, 37° C., 30 min.
Parameters: species or system Hooded Lister rats

SMILES	pIC50
CON=C(Cl)C1=CCCN(C)C1 [E 1, 1-Methyl-1,2,5,6-tetrahydropyridin-3-yl-N-methoxycarboximidoyl chloride oxalate salt]	6.59
CON=C(C#N)C1=CCCN(C)C1 [E 3, α-(Methoxyimino)-α-(1-methyl-1,2,5,6-tetrahydropyridin-3-yl) acetonitrile oxalate salt]	6.67
CON=C(C1=CCCN(C)C1)C(F)(F)F [E 4, E- and Z-1-Methyl-3-(α,α,α-trifluoroacetyl)-1,2,5,6-tetrahydropyridine-O-methyl oxime oxalate salt]	6.65
CO/N=C(\CF)C1=CCCN(C)C1 [E 6, Z-1-Methyl-3-(α-fluoroacetyl)-1,2,5,6-tetrahydropyridine-O-methyl oxime oxalate salt]	6.21
CO/N=C(\CF)C1=CCCNC1 [E 7, Z-3-(α-Fluoroacetyl)-1,2,5,6-tetrahydropyridine-O-methyl oxime hydrochloride salt]	6.38
CON=C(Cl)C1=CCCNC1 [E 9, 1,2,5,6-Tetrahydropyridin-3-yl-N-methoxycarboximidoyl chloride oxalate salt]	6.74

Further compounds by rising pIC50, results first:

pIC50	SMILES
5.90	CON=C(C1=CCCN(C)C1)C(F)F [E 5, E- and Z-1-Methyl-3-(α,α-difluoroacetyl)-1,2,5,6-tetrahydropyridine-O-methyl oxime oxalate salt]
5.93	CCN1CCC=C(C(C#N)=NOC)C1 [E 11, α-(Methoxyimino)-α-(1-ethyl-1,2,5,6-tetrahydropyridin-3-yl) acetonitrile oxalate salt]
7.39	CON=C(F)C1=CCCNC1 [E 8, 1,2,5,6-Tetrahydropyridin-3-yl-N-methoxycarboximidoyl fluoride oxalate salt]
7.41	CON=C(F)C1=CCCN(C)C1 [E 2, 1-Methyl-1,2,5,6-tetrahydropyridin-3-yl-N-methoxycarboximidoyl fluoride oxalate salt]
7.46	CON=C(C#N)C1=CCCNC1 [E 10, α-(Methoxyimino)-α-(1,2,5,6-tetrahydropyridin-3-yl)acetonitrileoxalate salt]

These compounds were tested against muscarinic receptors (3H-QNB), cerebral cortex (assay: Radio ligand binding: displacement of the muscarinic antagonist 3H-Quinuclidinyl Benzilate (3H-QNB) from rat cerebral cortex membranes). Details: displacement of 0.27 nM 3H-QNB (muscarinic antagonist), 37° C., 30 min.
Parameters: species or system Hooded Lister rats

SMILES	pIC50
CON=C(Cl)C1=CCCN(C)C1 [E 1, 1-Methyl-1,2,5,6-tetrahydropyridin-3-yl-N-methoxycarboximidoyl chloride oxalate salt]	5.55
CON=C(C#N)C1=CCCN(C)C1 [E 3, α-(Methoxyimino)-α-(1-methyl-1,2,5,6-tetrahydropyridin-3-yl) acetonitrile oxalate salt]	5.02
CON=C(C1=CCCN(C)C1)C(F)(F)F [E 4, E- and Z-1-Methyl-3-(α,α,α-trifluoroacetyl)-1,2,5,6-tetrahydropyridine-O-methyl oxime oxalate salt]	4.78
CO/N=C(\CF)C1=CCCN(C)C1 [E 6, Z-1-Methyl-3-(α-fluoroacetyl)-1,2,5,6-tetrahydropyridine-O-methyl oxime oxalate salt]	5.07
CO/N=C(\CF)C1=CCCNC1 [E 7, Z-3-(α-Fluoroacetyl)-1,2,5,6-tetrahydropyridine-O-methyl oxime hydrochloride salt]	4.77
CON=C(Cl)C1=CCCNC1 [E 9, 1,2,5,6-Tetrahydropyridin-3-yl-N-methoxycarboximidoyl chloride oxalate salt]	5.33

Further lines, results first:

pIC50	SMILES
5.55	CON=C(F)C1=CCCNC1 [E 8, 1,2,5,6-Tetrahydropyridin-3-yl-N-methoxycarboximidoyl fluoride oxalate salt]
5.82	CON=C(F)C1=CCCN(C)C1 [E 2, 1-Methyl-1,2,5,6-tetrahydropyridin-3-yl-N-methoxycarboximidoyl fluoride oxalate salt]
5.94	CON=C(C#N)C1=CCCNC1 [E 10, α-(Methoxyimino)-α-(1,2,5,6-tetrahydropyridin-3-yl)acetonitrileoxalate salt]

— patent publication US5314901A, “1,2,5,6-tetrahydropyridine oxime compounds” (Beecham Group p.l.c., priority 1990, dated 1994)
